Results on 26 molecules are retold here after patent US20110190503A1, “Thiazolopyridin-2-yloxy-phenyl and thiazolopyrazin-2-yloxy-phenyl amines as modulators of leukotriene A4 hydrolase” (Janssen Pharmaceutical NV, priority 2008, published 2011).

SMILES strings stand for the structures.

The IC50 is the concentration needed to halve the response being measured.

In assay [1] the target is T1, recombinant human LTA4 hydrolase (rhLTA4H) (Homo sapiens, UniProt P09960).
T1 construct: made in house; host or cells: Spodoptera frugiperda (Sf-9) cells, recombinant baculovirus (pFastBac1)
T1 sequence (P09960 1-611): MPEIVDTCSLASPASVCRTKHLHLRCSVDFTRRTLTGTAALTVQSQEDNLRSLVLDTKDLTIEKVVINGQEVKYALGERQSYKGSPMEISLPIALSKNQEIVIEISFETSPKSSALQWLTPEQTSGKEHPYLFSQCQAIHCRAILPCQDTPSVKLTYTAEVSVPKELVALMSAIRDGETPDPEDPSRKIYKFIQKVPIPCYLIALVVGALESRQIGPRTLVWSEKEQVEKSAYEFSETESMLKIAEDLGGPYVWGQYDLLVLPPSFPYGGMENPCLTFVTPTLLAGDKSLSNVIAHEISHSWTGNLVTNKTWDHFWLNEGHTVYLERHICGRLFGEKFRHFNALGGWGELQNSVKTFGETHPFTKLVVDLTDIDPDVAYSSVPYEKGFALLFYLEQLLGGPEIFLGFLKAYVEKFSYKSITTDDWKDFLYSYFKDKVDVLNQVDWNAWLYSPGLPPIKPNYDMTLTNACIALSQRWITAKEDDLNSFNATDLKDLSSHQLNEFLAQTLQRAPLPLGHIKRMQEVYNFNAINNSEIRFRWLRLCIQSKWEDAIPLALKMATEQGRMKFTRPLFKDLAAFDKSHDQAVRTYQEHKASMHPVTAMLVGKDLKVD
Description: Recombinant human LTA4 hydrolase assay for LTA4 hydrolase inhibitor activity. It is filed as biochemical. The settings on record: rhLTA4H, LTA4 substrate, LTB4 by immunoassay; single determination or average; read-out: IC50. The gist of the method: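 LTB4 formed from LTA4 substrate (free acid from the methyl ester) was quantified by enzyme immunoassay after a 30 min rt reaction. Enzyme was 10 ng Sf-9-expressed human LTA4 hydrolase, pre-incubated 10 min with compound.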

In assay [2] the test system is LTB4 production by calcium ionophore-stimulated murine blood. Description: LTB4 production by calcium ionophore-stimulated murine blood for LTA4H inhibitor activity. The class given is cell-based, CD-1 mice. Particulars: Mus musculus; murine blood diluted 1 in 15, calcium ionophore A23187, LTB4 by immunoassay; read-out: IC50. As for the experimental part:
Assay 2: LTB4 Production by Calcium Ionophore-Stimulated Murine Blood for LTA4H Inhibitor Activity
CD-1 mice were sacrificed, and blood was collected in heparin-containing syringes by cardiac puncture. […] After the microtiter plate contents were incubated for 15 min at 37° C. in a humidified incubator, calcium ionophore A23187 (Sigma Chemical Co., St. Louis, Mo.) was added to each sample well (final concentration=7 μg/mL). The incubation was continued under the same conditions for an additional 30 min to allow LTB4 formation. The reaction was terminated by centrifugation (833×g, 10 min at 4° C.), and supernatants were analyzed for LTB4 by a commercially available enzyme-linked immunoassay (Cayman Chemical Co.) according to the manufacturer's instructions. Positive controls, under essentially identical conditions but without addition of an inhibitor compound, and negative unstimulated controls, containing all assay components except calcium ionophore, were routinely run in each experiment. […] The values presented here are the result of a single determination or an average of two or more determinations, as indicated in parentheses following each value. For compounds tested three or more times, the average value is followed by the standard deviation

For `c1ccc2c(c1)CCN(CCOc1ccc(Oc3nc4ncccc4s3)cc1)C2` [Example 6, 2-{2-[4-([1,3]Thiazolo[4,5-b]pyridin-2-yloxy)phenoxy]ethyl}-1,2,3,4-tetrahydroisoquinoline], the IC50 in assay [1] was determined as 0.009 µM; in assay [2] it was 0.064 µM.

Take `c1cnc(OC2CCN(CCOc3ccc(Oc4nc5ncccc5s4)cc3)CC2)nc1` [Example 1, 2-(4-{2-[4-(Pyrimidin-2-yloxy)piperidin-1-yl]ethoxy}phenoxy)[1,3]thiazolo[4,5-b]pyridine]: the IC50 was found to be 0.001 µM in assay [1] and 0.15 µM in assay [2].

Take `O=C(O)CCNCc1ccc(Oc2nc3ncccc3s2)cc1` [Example 275, N-[4-([1,3]Thiazolo[4,5-b]pyridin-2-yloxy)benzyl]-beta-alanine]: the IC50 in assay [1] turned out to be 0.047 µM; in assay [2], 3.3 µM.

As for `CC(=O)N1CC2CC(CN(Cc3ccc(Oc4nc5ncccc5s4)cc3)C2)C1` [Example 294, meso-2-(4-{[7-Acetyl-3,7-diazabicyclo[3.3.1]non-3-yl]methyl}phenoxy)[1,3]thiazolo[4,5-b]pyridine], the IC50 in assay [1] stood at 0.023 µM; in assay [2] it was 0.079 µM.

For `CCCN(CCc1ccc(Oc2nc3ncccc3s2)cc1)CC1CC1` [Example 57, N-(Cyclopropylmethyl)-N-{2-[4-([1,3]thiazolo[4,5-b]pyridin-2-yloxy)phenyl]ethyl}propan-1-amine], the figures for the IC50 in assay [1] and in assay [2] were 0.003 µM and 0.016 µM, respectively.

Turning to `c1cnc2nc(Oc3ccc(OCCN4CCC(Oc5ccncc5)CC4)cc3)sc2c1` [Example 13, 2-(4-{2-[4-(Pyridin-4-yloxy)piperidin-1-yl]ethoxy}phenoxy)[1,3]thiazolo[4,5-b]pyridine], the IC50 is 0.013 µM in assay [1] and 0.12 µM in assay [2].

As to `c1cnc2nc(Oc3ccc(CCN4CCC(c5ccncc5)CC4)cc3)sc2c1` [Example 65, 2-{4-[2-(4-Pyridin-4-ylpiperidin-1-yl)ethyl]phenoxy}[1,3]thiazolo[4,5-b]pyridine], the IC50 turned out to be 0.0096 µM in assay [1] and 0.1 µM in assay [2].

In the case of `FC(F)(F)C1CCN(Cc2ccc(Oc3nc4ncccc4s3)cc2)CC1` [Example 92, 2-(4-{[4-(Trifluoromethyl)piperidin-1-yl]methyl}phenoxy)[1,3]thiazolo[4,5-b]pyridine], the IC50 in assay [1] was 0.004 µM; in assay [2] it was 0.067 µM.

Regarding `CC(=O)N1[C@@H]2CC[C@H]1C[C@@H](NCCOc1ccc(Oc3nc4ncccc4s3)cc1)C2` [Example 159, meso-(3-endo)-8-acetyl-N-{2-[4-([1,3]thiazolo[4,5-b]pyridin-2-yloxy)phenoxy]ethyl}-8-azabicyclo[3.2.1]octan-3-amine], the IC50 amounted to 0.009 µM in assay [1] and 0.082 µM in assay [2].

On to `NC(=O)N1CC2CN(CCc3ccc(Oc4nc5cccnc5s4)cc3)CC2C1` (stereo not shown) [Example 70, 5-{2-[4-([1,3]Thiazolo[5,4-b]pyridin-2-yloxy)phenyl]ethyl}hexahydropyrrolo[3,4-c]pyrrole-2(1H)-carboxamide], for which the IC50 is 0.072 µM in assay [1] and 0.35 µM in assay [2].

`c1cnc2nc(Oc3ccc(CN4CCC(Oc5ccncc5)CC4)cc3)sc2c1` [Example 262, 2-(4-{[4-(Pyridin-4-yloxy)piperidin-1-yl]methyl}phenoxy)[1,3]thiazolo[4,5-b]pyridine]: the IC50 worked out at 0.003 µM in assay [1] and 0.097 µM in assay [2].

With `CC(=O)N1C[C@H]2CC[C@@H](C1)N2CCc1ccc(Oc2nc3cccnc3s2)cc1` [Example 53, meso-2-(4-{2-[3-Acetyl-3,8-diazabicyclo[3.2.1]oct-8-yl]ethyl}phenoxy)[1,3]thiazolo[5,4-b]pyridine], the IC50 was determined as 0.058 µM in assay [1] and 2.5 µM in assay [2].

Turning to `c1ccc(SC2CCN(Cc3ccc(Oc4nc5ncccc5s4)cc3)CC2)cc1` [Example 264, 2-(4-{[4-(Phenylsulfanyl)piperidin-1-yl]methyl}phenoxy)[1,3]thiazolo[4,5-b]pyridine], the IC50 amounted to 0.03 µM in assay [1] and 0.159 µM in assay [2].

Turning to `O=C(O)C1CCN(Cc2ccc(Oc3nc4ncccc4s3)cc2)CC1` [Example 131, 1-[4-([1,3]Thiazolo[4,5-b]pyridin-2-yloxy)benzyl]piperidine-4-carboxylic acid], the IC50 in assay [1] is 0.0078 µM; in assay [2], 1.07 µM.

As for `COc1ccccc1N1CCN(CCOc2ccc(Oc3nc4ncccc4s3)cc2)CC1` [Example 135, 2-(4-{2-[4-(2-Methoxyphenyl)piperazin-1-yl]ethoxy}phenoxy)[1,3]thiazolo[4,5-b]pyridine], the IC50 in assay [1] stood at 0.072 µM; in assay [2], 0.088 µM.

Take `NC(=O)C1CCN(CCOc2ccc(Oc3nc4nccnc4s3)cc2)CC1` [Example 26, 1-{2-[4-([1,3]Thiazolo[4,5-b]pyrazin-2-yloxy)phenoxy]ethyl}piperidine-4-carboxamide]: the IC50 in assay [1] came out at 0.2 µM; in assay [2] it was 0.26 µM.

As for `c1ccc(SC2CCN(Cc3ccc(Oc4nc5ncccc5s4)cc3)CC2)nc1` [Example 263, 2-(4-{[4-(Pyridin-2-ylsulfanyl)piperidin-1-yl]methyl}phenoxy)[1,3]thiazolo[4,5-b]pyridine], the values for the IC50 in assay [1] and in assay [2] were 0.004 µM and 0.462 µM, respectively.

On to `OC1(c2ccccc2)CCN(CCOc2ccc(Oc3nc4cccnc4s3)cc2)CC1` [Example 40, 4-Phenyl-1-{2-[4-([1,3]thiazolo[5,4-b]pyridin-2-yloxy)phenoxy]ethyl}piperidin-4-ol], for which the results for the IC50 in assay [1] and in assay [2] were 0.099 µM and 0.95 µM, respectively.

In the case of `NC(=O)N[C@@H]1C[C@H]2CC[C@@H](C1)N2CCc1ccc(Oc2nc3ncccc3s2)cc1` [Example 50, meso-1-[(3-exo)-8-{2-[4-([1,3]Thiazolo[4,5-b]pyridin-2-yloxy)phenyl]ethyl}-8-azabicyclo[3.2.1]oct-3-yl]urea], the IC50 in assay [1] is 0.002 µM; in assay [2], 2.3 µM.

Regarding `CC(=O)NC1CCN(CCOc2ccc(Oc3nc4ncc(C)cc4s3)cc2)CC1` [Example 154, N-[1-(2-{4-[(6-Methyl[1,3]thiazolo[4,5-b]pyridin-2-yl)oxy]phenoxy}ethyl)piperidin-4-yl]acetamide], the IC50 worked out at 0.049 µM in assay [1] and 0.33 µM in assay [2].

Take `OC1(c2cccc(C(F)(F)F)c2)CCN(CCOc2ccc(Oc3nc4nccnc4s3)cc2)CC1` [Example 24, 1-{2-[4-([1,3]Thiazolo[4,5-b]pyrazin-2-yloxy)phenoxy]ethyl}-4-[3-(trifluoromethyl)phenyl]piperidin-4-ol]: the IC50 is 0.052 µM in assay [1] and 0.75 µM in assay [2].

For the molecule `OC1(c2cccc(C(F)(F)F)c2)CCN(CCOc2ccc(Oc3nc4ncccc4s3)cc2)CC1` [Example 33, 1-{2-[4-([1,3]Thiazolo[4,5-b]pyridin-2-yloxy)phenoxy]ethyl}-4-[3-(trifluoromethyl)phenyl]piperidin-4-ol], the IC50 stood at 0.017 µM in assay [1] and 0.48 µM in assay [2].

For the molecule `CC(=O)N[C@@H]1C[C@H]2CC[C@@H](C1)N2CCOc1ccc(Oc2nc3cccnc3s2)cc1` [Example 153, meso-N-[(3-exo)-8-{2-[4-([1,3]Thiazolo[5,4-b]pyridin-2-yloxy)phenoxy]ethyl}-8-azabicyclo[3.2.1]oct-3-yl]acetamide], the IC50 is 0.035 µM in assay [1] and 0.36 µM in assay [2].

Take `c1ccc(C2CCN(CCc3ccc(Oc4nc5ncccc5s4)cc3)CC2)nc1` [Example 48, 2-{4-[2-(4-Pyridin-2-ylpiperidin-1-yl)ethyl]phenoxy}[1,3]thiazolo[4,5-b]pyridine]: the IC50 in assay [1] came out at 0.015 µM; in assay [2], 0.1 µM.

Regarding `OC1(c2cccc(C(F)(F)F)c2)CCN(Cc2ccc(Oc3nc4ncccc4s3)cc2)CC1` [Example 103, 1-[4-([1,3]Thiazolo[4,5-b]pyridin-2-yloxy)benzyl]-4-[3-(trifluoromethyl)phenyl]piperidin-4-ol], the results for the IC50 in assay [1] and in assay [2] were 0.01 µM and 0.12 µM, respectively.

As to `c1cnc2sc(Oc3ccc(OCCN4CCC(c5ccncc5)CC4)cc3)nc2c1` [Example 42, 2-{4-[2-(4-Pyridin-4-ylpiperidin-1-yl)ethoxy]phenoxy}[1,3]thiazolo[5,4-b]pyridine], the IC50 turned out to be 0.083 µM in assay [1] and 0.58 µM in assay [2].
